Assay results: patent US12173018B2, “Penicillin-binding protein inhibitors” (priority 2018, dated 2024)
Values after ≈ are worked out from the molar mass of the structure shown. Structures can show the parent of a compound that is named as a salt. Where two headings read alike, the source gives them in different places.

Experiments:
[1] = system: E. coli DH5α empty pLBII vector control strain; assay: microbe, parasite or virus in culture; format: cell-based, Escherichia coli; conditions: Escherichia coli, read-out: Microbiological Activity (MIC in mg/L), E. coli DH5α/pLBII
Experimental: (§1) Briefly, cryo-preserved bacterial cultures of challenge strains are streaked for isolation on appropriate agar medium, in this case Mueller Hinton II agar. Following incubation to allow growth of the colonies, plates are sealed with parafilm and stored refrigerated for up to two weeks. For preparation of assay inoculum and to ensure low variability, at least 5 colonies are picked from the agar plates with an inoculating loop and aseptically transferred to a culture tube containing 3 mL of Mueller-Hinton Broth (supplemented with divalent cations to required levels based on Manufacturers' certification). The broth culture is grown for 3-5 hours at 37° C. with shaking at 200 rpm. Meanwhile, 2-fold serial dilutions of test compounds are conducted in a 96 well plate with a final volume of 75 μL per well at 2-fold the final desired concentration. After the dilution plates are set up the growing cultures are then diluted in a cuvette containing MH II broth and the optical density is measured at 600 nm. The Inoculum is diluted such that 75 μL of this culture in Mueller-Hinton Broth results in a starting bacterial concentration of 5×10^5 CFU/mL when added to the dilution plates. The plates are incubated for 16-20 hours at 37° C. The MIC values are read visually as the lowest concentration well with no bacterial growth.
To determine if test compounds were affected by CTX-M15, the most abundant extended spectrum […] in clinical settings worldwide, the inhibition of the growth of an engineered strain of Escherichia coli harboring CTX-M15 was tested. This strain was constructed by cloning the gene encoding CTX-M15 into the NdeI and BamHI restriction endonuclease sites of plasmid pLBII, placing the gene(s) under the control of the Lac promoter. The constructed expression plasmid for CTX-M15 was used to transform competent E. coli DH5α cells to make the engineered strain, including an empty pLBII vector control strain. The classic cell based broth microdilution MIC assay was employed as described above with the addition of control antibiotics, known to be degraded by β-lactamases (Ceftazidime, piperacillin and piperacillin+tazobactam).

E. coli ATCC 25922 = assay: Broth microdilution MIC, E. coli ATCC 25922; format: cell-based; conditions: Escherichia coli
In short: (§2)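 Broth microdilution MICs followed CLSI methods in cation-supplemented Mueller-Hinton broth, with 2-fold serial compound dilutions. Log-phase cultures grown 3–5 h were added to a starting inoculum of 5×10^5 CFU/mL and incubated 16–20 h at 37 °C. The MIC was read visually as the lowest concentration with no growth.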

E. coli AG100 = assay: Broth microdilution MIC, E. coli AG100 (wild-type parent); format: cell-based; conditions: Escherichia coli; wild-type parent E. coli AG100, broth microdilution; read-out: MIC E. coli AG100
In short: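 Broth microdilution in cation-supplemented Mueller-Hinton broth, 2-fold serial compound dilutions, inoculum 5×10^5 CFU/mL from 3-5 h log culture.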

E. coli 901C = assay: microbe, parasite or virus in culture; format: cell-based; conditions: Escherichia coli; hyper-permeable E. coli 901C, broth microdilution; read-out: MIC E. coli 901C
In short: as §2

E. coli AG100A = assay: microbe, parasite or virus in culture; format: cell-based; conditions: Escherichia coli, read-out: MIC E. coli AG100A
In short: as §2

E. coli D22 = assay: microbe, parasite or virus in culture; format: cell-based; conditions: Escherichia coli; hyper-permeable E. coli D22, broth microdilution; read-out: MIC E. coli D22
In short: as §2

K. pneumoniae SI-117 = assay: microbe, parasite or virus in culture; format: cell-based; conditions: Klebsiella pneumoniae, SI117, read-out: MIC K. pneumoniae SI-117
In short: as §2

K. pneumoniae UMM = assay: microbe, parasite or virus in culture; format: cell-based; conditions: Klebsiella pneumoniae; K. pneumoniae UMM producing SHV-5 and KPC-2; read-out: MIC K. pneumoniae UMM
In short: as §2

[2] = system: P. aeruginosa (ΔmexAB-oprM); assay: microbe, parasite or virus in culture; format: cell-based; conditions: Pseudomonas aeruginosa, read-out: MIC P. aeruginosa ΔmexAB-OprM
In short: as §2

P. aeruginosa ATCC 35151 = assay: microbe, parasite or virus in culture; format: cell-based; conditions: Pseudomonas aeruginosa, ATCC35151; hyper-permeable P. aeruginosa ATCC 35151; read-out: MIC P. aeruginosa ATCC 35151
In short: as §2

K. pneumoniae 848844 = assay: microbe, parasite or virus in culture; format: cell-based, Klebsiella pneumoniae; conditions: Klebsiella pneumoniae; K. pneumoniae 848844 producing SHV-11 and KPC-2; read-out: MIC K. pneumoniae 848844
In short: as §2

P. aeruginosa PAO1 = assay: Broth microdilution MIC, P. aeruginosa PAO1; format: cell-based; conditions: Pseudomonas aeruginosa
Experimental: (§3) To determine the ability of test compounds to potentiate the inhibition of the growth of bacterial strains, classic cell based broth microdilution minimum inhibitory concentration (MIC) assays were employed. MIC assays are performed according to CLSI methods except where otherwise noted (CLSI, 2011 and CLSI, 2009). The reference type strain E. coli ATCC 25922, the wild-type parent strain E. coli AG100, the hyper-permeable E. coli 901C and E. coli D22 and the E. coli AG100A strain lacking the acrAB efflux pump encoding genes were used to determine the ability of the PBP inhibitors to penetrate the outer membrane of gram-negative bacteria and inhibit bacterial growth. […] The P. aeruginosa PAO1, P. aeruginosa ATCC 27853 and A. baumannii ATCC 19606, along with the hyper-permeable P. aeruginosa ATCC 35151 and an engineered efflux pump-compromised strain of P. aeruginosa (ΔmexAB-oprM) were used to determine the ability of PBP inhibitors to penetrate the outer membrane of P. aeruginosa and A. baumannii and assess antibacterial activity against these important gram-negative organisms.
as §1

A. baumannii ATCC 19606 = assay: Broth microdilution MIC, A. baumannii ATCC 19606; format: cell-based; conditions: Acinetobacter baumannii
Experimental: as §3, §1

[3] = system: N. gonorrhoeae ATCC 49226; assay: Liquid broth MIC, N. gonorrhoeae ATCC 49226; format: cell-based; conditions: Neisseria gonorrhoeae, ATCC49226; N. gonorrhoeae ATCC 49226, liquid broth; read-out: Minimum Inhibitory Concentration, N. gonorrhoeae ATCC 49226
In short: (§4)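 Broth microdilution in wild-type strains: colonies from GC agar with 1% Kellogg's supplement suspended in GC broth, inoculated at 5×10^5 CFU/mL into 2-fold compound dilutions. Plates incubated 40-42 hours at 36° C., 5% CO2; MIC read visually as lowest concentration with no growth.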

N. gonorrhoeae FA1090 = assay: Liquid broth MIC, N. gonorrhoeae FA1090; format: cell-based; conditions: Neisseria gonorrhoeae; N. gonorrhoeae FA1090, liquid broth; read-out: Minimum Inhibitory Concentration, N. gonorrhoeae FA1090
In short: as §4

N. gonorrhoeae WHO F = assay: Liquid broth MIC, N. gonorrhoeae WHO F; format: cell-based; conditions: Neisseria gonorrhoeae; N. gonorrhoeae WHO F, liquid broth; read-out: Minimum Inhibitory Concentration, N. gonorrhoeae WHO F
In short: as §4

N. gonorrhoeae FA19 = assay: Liquid broth MIC, N. gonorrhoeae FA19; format: cell-based; conditions: Neisseria gonorrhoeae; N. gonorrhoeae FA19, liquid broth; read-out: Minimum Inhibitory Concentration, N. gonorrhoeae FA19
In short: as §4

[4] = system: engineered strain of Escherichia coli harboring CTX-M15; assay: microbe, parasite or virus in culture; format: cell-based; conditions: Escherichia coli, read-out: Microbiological Activity (MIC in mg/L), E. coli DH5α/pLBII-CTX-M15, engineered strain producing CTX-M15
E. coli PBP3 = E. coli PBP3 (Escherichia coli (strain K12), UniProt P0AD68); assay: E. coli PBP3 Bocillin-FL fluorescence polarization competition binding assay
In short: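 Purified E. coli PBP (1.5 μM final) competed with inhibitor (0-1000 μM) for Bocillin-FL (0.1 μM final) in 50 mM Hepes pH 8.0, 300 mM NaCl, 5% glycerol. Fluorescence polarization (ex 490/em 520 nm) was read continuously for 60 min after Bocillin-FL addition. EC50 was the concentration that reduced Bocillin-FL binding by 50%.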

[5] = ATCC25922, read-out: MIC E. coli 25922
[6] = PAO1, read-out: MIC P. aeruginosa PAO1
[7] = ATCC19606, read-out: MIC A. baumannii ATCC 19606
[8] = ATCC25922, E. coli ATCC 25922, broth microdilution, read-out: MIC E. coli 25922
[9] = P. aeruginosa PAO1, broth microdilution, read-out: MIC P. aeruginosa PAO1
[10] = ATCC19606, A. baumannii ATCC 19606, broth microdilution, read-out: MIC A. baumannii ATCC 19606

Chain of E. coli PBP3 (P0AD68 whole entry): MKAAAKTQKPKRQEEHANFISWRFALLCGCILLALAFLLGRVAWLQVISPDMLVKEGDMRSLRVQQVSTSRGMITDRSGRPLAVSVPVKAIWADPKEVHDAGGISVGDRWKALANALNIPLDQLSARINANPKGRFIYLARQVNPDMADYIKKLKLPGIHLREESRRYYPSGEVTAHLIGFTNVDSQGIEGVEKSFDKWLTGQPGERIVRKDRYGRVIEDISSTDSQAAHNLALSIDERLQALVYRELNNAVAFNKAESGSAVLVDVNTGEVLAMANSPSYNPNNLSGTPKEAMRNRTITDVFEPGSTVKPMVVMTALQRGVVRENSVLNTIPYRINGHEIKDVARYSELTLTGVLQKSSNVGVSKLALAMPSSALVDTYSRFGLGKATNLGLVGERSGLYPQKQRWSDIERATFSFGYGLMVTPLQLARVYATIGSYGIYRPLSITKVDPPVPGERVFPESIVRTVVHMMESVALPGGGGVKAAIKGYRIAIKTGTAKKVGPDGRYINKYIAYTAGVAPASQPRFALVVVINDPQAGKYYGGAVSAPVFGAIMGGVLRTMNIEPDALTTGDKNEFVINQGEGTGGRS

Compound | MIC (E. coli ATCC 25922; [5]) [µg/mL] | MIC (E. coli AG100) [µg/mL] | MIC (E. coli 901C) [µg/mL] | MIC (E. coli AG100A) [µg/mL] | MIC (E. coli D22) [µg/mL] | MIC (K. pneumoniae SI-117) [µg/mL] | MIC (K. pneumoniae UMM) [µg/mL] | MIC [2] [µg/mL] | MIC (P. aeruginosa ATCC 35151) [µg/mL] | MIC (K. pneumoniae 848844) [µg/mL] | MIC (P. aeruginosa PAO1; [6]) [µg/mL] | MIC (A. baumannii ATCC 19606; [7]) [µg/mL] | MIC [3] [µg/mL] | MIC (N. gonorrhoeae FA1090) [µg/mL] | MIC (N. gonorrhoeae WHO F) [µg/mL] | MIC (N. gonorrhoeae FA19) [µg/mL] | MIC (E. coli ATCC 25922; [8]) [µg/mL] | MIC (P. aeruginosa PAO1; [9]) [µg/mL] | MIC (A. baumannii ATCC 19606; [10]) [µg/mL] | also measured
CCN1CCN(C(=O)NCC2(C(=O)N[C@H]3Cc4cccc(C(=O)O)c4OB3O)CNC2)C(=O)C1=O [Example 53, (R)-3-(3-((4-ethyl-2,3-dioxopiperazine-1-carboxamido)methyl)azetidine-3-carboxamido)-2-hydroxy-3,4-dihydro-2H-benzo[e][1,2]oxaborinine-8-carboxylic acid, trifluoroacetic acid salt] |  |  |  |  |  |  |  |  |  |  |  |  |  |  |  |  |  |  |  | MIC [1]: > 512 mg/L
CS(=O)(=O)N1CCN(C(=O)NC(C(=O)N[C@H]2Cc3cccc(C(=O)O)c3OB2O)c2ccc(O)c(O)c2Cl)C1=O (stereo partly drawn) [Example 58, (3R)-3-(2-(2-chloro-3,4-dihydroxyphenyl)-2-(3-(methylsulfonyl)-2-oxoimidazolidine-1-carboxamido)acetamido)-2-hydroxy-3,4-dihydro-2H-benzo[e][1,2]oxaborinine-8-carboxylic acid] | 32 to 64 | 32 to 64 | 2 to 4 | 8 to 16 | 8 to 16 | > 128 | 8 to 16 | < 0.25 | < 0.25 | 8 to 16 | 8 to 16 | 2 to 4 | 4 to 8 (≈ 6.7 to 13.4 µM) | 4 to 8 (≈ 6.7 to 13.4 µM) | 1 to 2 (≈ 1.68 to 3.35 µM) | 4 to 8 (≈ 6.7 to 13.4 µM) |  |  |  | MIC [4]: 32 to 64 mg/L (≈ 53.6 to 107 µM)
NS(=O)(=O)c1ccc([C@@H](NC(=O)N2CCN(CCF)C(=O)C2=O)C(=O)N[C@H]2Cc3cccc(C(=O)O)c3OB2O)cc1O [Example 170, (R)-3-((R)-2-(4-(2-fluoroethyl)-2,3-dioxopiperazine-1-carboxamido)-2-(3-hydroxy-4-sulfamoylphenyl)acetamido)-2-hydroxy-3,4-dihydro-2H-benzo[e][1,2]oxaborinine-8-carboxylic acid] | 8 to 16 | 8 to 16 | < 0.25 | 2 to 4 | 0.5 to 1 | 32 to 64 | 8 to 16 | 8 to 16 | < 0.25 | 32 to 64 | > 128 | > 128 | 4 to 8 (≈ 6.44 to 12.9 µM) | 0.25 to 0.5 (≈ 0.402 to 0.805 µM) | < 0.125 | 4 to 8 (≈ 6.44 to 12.9 µM) |  |  |  | 
NCCN1CCN(C(=O)N[C@@H](C(=O)N[C@H]2Cc3cccc(C(=O)O)c3OB2O)c2ccc(O)c(O)c2Cl)C(=O)C1=O [Example 220, (R)-3-((R)-2-(4-(2-aminoethyl)-2,3-dioxopiperazine-1-carboxamido)-2-(2-chloro-3,4-dihydroxyphenyl)acetamido)-2-hydroxy-3,4-dihydro-2H-benzo[e][1,2]oxaborinine-8-carboxylic acid] |  | 0.5 to 1 | 0.5 to 1 | 0.5 to 1 | 0.5 to 1 | 2 to 4 | 0.5 to 1 | < 0.25 | < 0.25 | 0.5 to 1 |  |  | 16 to 32 (≈ 27.1 to 54.3 µM) | 4 to 8 (≈ 6.78 to 13.6 µM) | 1 to 2 (≈ 1.7 to 3.39 µM) | > 64 | 8 to 16 | 0.5 to 1 | < 0.25 | 
O=C(O)c1cccc2c1OB(O)[C@@H](NC(=O)C(NC(=O)N1C[C@H]3CCCN3C(=O)C1=O)c1ccc(O)c(O)c1Cl)C2 (stereo partly drawn) [Example 232, (3R)-3-(2-(2-chloro-3,4-dihydroxyphenyl)-2-((R)-3,4-dioxooctahydropyrrolo[1,2-a]pyrazine-2-carboxamido)acetamido)-2-hydroxy-3,4-dihydro-2H-benzo[e][1,2]oxaborinine-8-carboxylic acid] |  | 8 to 16 | 8 to 16 | 8 to 16 | 8 to 16 | 32 to 64 | 32 to 64 | < 0.25 | < 0.25 | 8 to 16 |  |  |  |  |  |  | > 128 | 32 to 64 | > 128 | EC50 (E. coli PBP3): 30 to 500 µM
